#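 Briefly, cells in 96-well plates were exposed to five compound concentrations for 48 h, and endpoints were estimated by linear interpolation. Definition used: TGI = concentration required for complete inhibition of growth.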 Where a SMILES comes first, the peptide text is derived from it. The star is where a group is joined. Cbz = O=C(OCc1ccccc1)*; OBn = c1ccc(CO*)cc1
# Legend:
# Assay in all cases: DTP human tumour cell line panel, 48 h
# [1] = tested on: SR leukemia
# [2] = tested on: MCF7 breast
# [3] = tested on: HOP-62 NSCLC
# [4] = tested on: MDA-MB-435
# [5] = tested on: 786-0 renal
# [6] = tested on: OVCAR-4 ovarian
# [7] = tested on: A549 NSCLC
# [8] = tested on: SF-539 CNS
# [9] = tested on: MOLT-4 leukemia
# [10] = tested on: NCI-H23 lung
# [11] = tested on: RPMI-8226 leukemia
# [12] = tested on: MDA-N
# [13] = tested on: HCC-2998 colon
# [14] = tested on: SNB-19 CNS
# [15] = tested on: SK-OV-3 ovarian
# [16] = tested on: K-562 leukemia
# [17] = tested on: EKVX NSCLC
# [18] = tested on: NCI-H460 lung
# [19] = tested on: OVCAR-3 ovarian
# [20] = tested on: MALME-3M melanoma
# [21] = tested on: HCT-15 colon
# [22] = tested on: T-47D breast
# [23] = tested on: SF-268 CNS
# [24] = tested on: BT-549 breast
# [25] = tested on: SN12C renal
# [26] = tested on: UACC-257 melanoma
# [27] = tested on: OVCAR-5 ovarian
# [28] = tested on: CCRF-CEM leukemia
# [29] = tested on: HOP-92 NSCLC
# [30] = tested on: M14 melanoma
# [31] = tested on: KM12 colon
# [32] = tested on: UACC-62 melanoma
# [33] = tested on: DU-145 prostate
# [34] = tested on: HL-60(TB) leukemia
# [35] = tested on: SNB-75 CNS
# [36] = tested on: RXF 393 renal
# [37] = tested on: HCT-116 colon
# [38] = tested on: SK-MEL-2 melanoma
# [39] = tested on: SK-MEL-28 melanoma
# [40] = tested on: LOX IMVI melanoma
# [41] = tested on: HT29 colon
# [42] = tested on: U251 CNS
# [43] = tested on: OVCAR-8 ovarian
# [44] = tested on: NCI-H226 lung
# [45] = tested on: CAKI-1 renal
# [46] = tested on: NCI/ADR-RES ovarian
# [47] = tested on: SW-620 colon
# [48] = tested on: ACHN renal
# [49] = tested on: A498 renal
# [50] = tested on: COLO 205 colon
# [51] = tested on: HS 578T breast
# [52] = tested on: MDA-MB-231 breast
# [53] = tested on: IGROV1 ovarian
# [54] = tested on: SK-MEL-5 melanoma
# [55] = tested on: PC-3 prostate
# [56] = tested on: TK-10 renal
# [57] = tested on: UO-31 renal
# [58] = tested on: NCI-H522 lung
# [59] = tested on: SF-295 CNS
smiles,measurement,setting,value
NC(=O)c1cc2ccccc2oc1=Nc1ccccc1,TGI,[1],> 100 µM
same,TGI,[2],> 100 µM
same,TGI,[3],> 100 µM
same,TGI,[4],> 100 µM
same,TGI,[5],> 100 µM
same,TGI,[6],> 100 µM
same,TGI,[7],> 100 µM
same,TGI,[8],> 100 µM
same,TGI,[9],> 100 µM
same,TGI,[10],> 100 µM
same,TGI,[11],> 100 µM
same,TGI,[12],> 100 µM
same,TGI,[13],> 100 µM
same,TGI,[14],> 100 µM
same,TGI,[15],> 100 µM
same,TGI,[16],> 100 µM
same,TGI,[17],> 100 µM
same,TGI,[18],> 100 µM
same,TGI,[19],> 100 µM
same,TGI,[20],> 100 µM
same,TGI,[21],> 100 µM
same,TGI,[22],> 100 µM
same,TGI,[23],> 100 µM
same,TGI,[24],> 100 µM
same,TGI,[25],> 100 µM
same,TGI,[26],> 100 µM
same,TGI,[27],> 100 µM
same,TGI,[28],> 100 µM
same,TGI,[29],> 100 µM
same,TGI,[30],> 100 µM
same,TGI,[31],> 100 µM
same,TGI,[32],> 100 µM
same,TGI,[33],> 100 µM
same,TGI,[34],> 100 µM
same,TGI,[35],> 100 µM
same,TGI,[36],> 100 µM
same,TGI,[37],> 100 µM
same,TGI,[38],> 100 µM
same,TGI,[39],> 100 µM
same,TGI,[40],> 100 µM
same,TGI,[41],> 100 µM
same,TGI,[42],> 100 µM
same,TGI,[43],> 100 µM
same,TGI,[44],> 100 µM
same,TGI,[45],> 100 µM
same,TGI,[46],> 100 µM
same,TGI,[47],> 100 µM
same,TGI,[48],> 100 µM
same,TGI,[49],> 100 µM
same,TGI,[50],> 100 µM
same,TGI,[51],> 100 µM
same,TGI,[52],> 100 µM
same,TGI,[53],> 100 µM
same,TGI,[54],> 100 µM
same,TGI,[55],> 100 µM
CC(C)=CCOc1cc(NC(=S)c2ccoc2C)ccc1Cl,TGI,[1],> 100 µM
same,TGI,[2],> 100 µM
same,TGI,[3],> 100 µM
same,TGI,[4],> 100 µM
same,TGI,[5],> 100 µM
same,TGI,[6],> 100 µM
same,TGI,[7],> 100 µM
same,TGI,[8],> 100 µM
same,TGI,[9],> 100 µM
same,TGI,[10],> 100 µM
same,TGI,[11],> 100 µM
same,TGI,[12],> 100 µM
same,TGI,[56],> 100 µM
same,TGI,[13],> 100 µM
same,TGI,[14],> 100 µM
same,TGI,[57],> 100 µM
same,TGI,[15],> 100 µM
same,TGI,[17],> 100 µM
same,TGI,[18],> 100 µM
same,TGI,[19],> 100 µM
same,TGI,[20],> 100 µM
same,TGI,[21],> 100 µM
same,TGI,[22],> 100 µM
same,TGI,[23],> 100 µM
same,TGI,[24],> 100 µM
same,TGI,[25],> 100 µM
same,TGI,[26],> 100 µM
same,TGI,[27],> 100 µM
same,TGI,[28],> 100 µM
same,TGI,[29],> 100 µM
same,TGI,[58],> 100 µM
same,TGI,[31],> 100 µM
same,TGI,[32],> 100 µM
same,TGI,[33],> 100 µM
same,TGI,[35],63.9 µM
same,TGI,[36],> 100 µM
same,TGI,[37],> 100 µM
same,TGI,[38],> 100 µM
same,TGI,[39],> 100 µM
same,TGI,[40],> 100 µM
same,TGI,[41],> 100 µM
same,TGI,[42],> 100 µM
same,TGI,[43],> 100 µM
same,TGI,[44],> 100 µM
same,TGI,[45],> 100 µM
same,TGI,[46],> 100 µM
same,TGI,[47],> 100 µM
same,TGI,[48],> 100 µM
same,TGI,[49],> 100 µM
same,TGI,[50],> 100 µM
same,TGI,[51],> 100 µM
same,TGI,[52],> 100 µM
same,TGI,[59],> 100 µM
same,TGI,[53],> 100 µM
same,TGI,[54],> 100 µM
same,TGI,[55],> 100 µM
CCOC(=O)C(c1c[nH]c2ccccc12)(c1c[nH]c2ccccc12)c1c[nH]c2ccccc12,TGI,[1],80 µM
same,TGI,[2],90.2 µM
same,TGI,[3],> 100 µM
same,TGI,[4],76.7 µM
same,TGI,[5],> 100 µM
same,TGI,[7],> 100 µM
same,TGI,[8],> 100 µM
same,TGI,[9],40.8 µM
same,TGI,[10],> 100 µM
same,TGI,[11],45.7 µM
same,TGI,[12],> 100 µM
same,TGI,[56],> 100 µM
same,TGI,[13],45.3 µM
same,TGI,[14],> 100 µM
same,TGI,[57],> 100 µM
same,TGI,[15],> 100 µM
same,TGI,[16],46.8 µM
same,TGI,[17],> 100 µM
same,TGI,[18],> 100 µM
same,TGI,[19],> 100 µM
same,TGI,[20],78.1 µM
same,TGI,[21],> 100 µM
same,TGI,[22],54.2 µM
same,TGI,[23],> 100 µM
same,TGI,[24],> 100 µM
same,TGI,[25],> 100 µM
same,TGI,[26],> 100 µM
same,TGI,[27],> 100 µM
same,TGI,[28],58.9 µM
same,TGI,[29],> 100 µM
same,TGI,[58],80.1 µM
same,TGI,[30],> 100 µM
same,TGI,[31],98.7 µM
same,TGI,[32],> 100 µM
same,TGI,[33],> 100 µM
same,TGI,[34],43.9 µM
same,TGI,[35],88.5 µM
same,TGI,[36],87.5 µM
same,TGI,[37],> 100 µM
same,TGI,[38],59.7 µM
same,TGI,[39],> 100 µM
same,TGI,[40],> 100 µM
same,TGI,[41],> 100 µM
same,TGI,[42],> 100 µM
same,TGI,[43],> 100 µM
same,TGI,[45],> 100 µM
same,TGI,[46],> 100 µM
same,TGI,[47],75.9 µM
same,TGI,[48],> 100 µM
same,TGI,[49],> 100 µM
same,TGI,[50],39.2 µM
same,TGI,[51],76.2 µM
same,TGI,[52],> 100 µM
same,TGI,[59],> 100 µM
same,TGI,[53],> 100 µM
same,TGI,[54],> 100 µM
same,TGI,[55],71.2 µM
COC(=O)CNC(=O)C(C)NC(=O)C(CC(=O)OCc1ccccc1)NC(=O)OCc1ccccc1 (stereo not drawn) (Cbz-Asp(OBn)-Ala-Gly-OMe; configuration not given here),TGI,[1],> 100 µM
same,TGI,[2],> 100 µM
same,TGI,[3],> 100 µM
same,TGI,[4],> 100 µM
same,TGI,[5],> 100 µM
same,TGI,[7],> 100 µM
same,TGI,[8],> 100 µM
same,TGI,[9],> 100 µM
same,TGI,[10],> 100 µM
same,TGI,[11],> 100 µM
same,TGI,[12],> 100 µM
same,TGI,[56],> 100 µM
same,TGI,[13],> 100 µM
same,TGI,[14],> 100 µM
same,TGI,[57],62.8 µM
same,TGI,[15],> 100 µM
same,TGI,[16],> 100 µM
same,TGI,[18],> 100 µM
same,TGI,[19],> 100 µM
same,TGI,[20],> 100 µM
same,TGI,[21],> 100 µM
same,TGI,[22],70.3 µM
same,TGI,[24],> 100 µM
same,TGI,[25],> 100 µM
same,TGI,[26],> 100 µM
same,TGI,[27],> 100 µM
same,TGI,[29],> 100 µM
same,TGI,[58],> 100 µM
same,TGI,[30],> 100 µM
same,TGI,[31],> 100 µM
same,TGI,[32],> 100 µM
same,TGI,[33],> 100 µM
same,TGI,[35],> 100 µM
same,TGI,[36],68.6 µM
same,TGI,[37],> 100 µM
same,TGI,[38],> 100 µM
same,TGI,[39],> 100 µM
same,TGI,[41],> 100 µM
same,TGI,[42],> 100 µM
same,TGI,[43],> 100 µM
same,TGI,[44],> 100 µM
same,TGI,[45],> 100 µM
same,TGI,[46],> 100 µM
same,TGI,[47],> 100 µM
same,TGI,[50],> 100 µM
same,TGI,[51],> 100 µM
same,TGI,[52],46.9 µM
same,TGI,[59],> 100 µM
same,TGI,[53],> 100 µM
same,TGI,[54],71.8 µM
same,TGI,[55],> 100 µM
